Among the data in ChEMBL document CHEMBL5576047, “Synthesis of a new 2-prenylated quinoline as potential drug for metabolic syndrome with pan-PPAR activity and anti-inflammatory effects” (Bioorg Med Chem Lett, 2024) are EC50 values, retold here.

One may read the EC50 as the concentration needed to bring the measured effect to its halfway point.

Common to all, as to assay type: cell-based
The target in experiment [1] is T1, Peroxisome proliferator-activated receptor alpha (Homo sapiens, UniProt Q07869).
T1 sequence (Q07869 whole entry): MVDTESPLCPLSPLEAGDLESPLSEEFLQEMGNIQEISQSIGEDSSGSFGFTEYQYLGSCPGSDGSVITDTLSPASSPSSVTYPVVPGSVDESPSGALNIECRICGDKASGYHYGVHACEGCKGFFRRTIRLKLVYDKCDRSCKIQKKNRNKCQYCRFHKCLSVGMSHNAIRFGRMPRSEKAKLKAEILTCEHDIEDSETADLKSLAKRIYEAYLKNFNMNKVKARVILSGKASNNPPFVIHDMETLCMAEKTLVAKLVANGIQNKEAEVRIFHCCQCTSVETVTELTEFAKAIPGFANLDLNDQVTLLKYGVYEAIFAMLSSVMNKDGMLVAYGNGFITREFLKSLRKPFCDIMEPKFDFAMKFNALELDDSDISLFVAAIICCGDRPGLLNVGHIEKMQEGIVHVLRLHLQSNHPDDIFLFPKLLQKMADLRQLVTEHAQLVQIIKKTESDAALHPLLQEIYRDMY
Description: Agonist activity at GAL4-tagged human PPARalpha transfected in African green monkey COS7 cells assessed as transcriptional activation by measuring effective concentration incubated for 24 hrs by luciferase assay.

For experiment [2], the target named is T2, Peroxisome proliferator-activated receptor gamma (Homo sapiens, UniProt P37231).
T2 sequence (P37231 whole entry): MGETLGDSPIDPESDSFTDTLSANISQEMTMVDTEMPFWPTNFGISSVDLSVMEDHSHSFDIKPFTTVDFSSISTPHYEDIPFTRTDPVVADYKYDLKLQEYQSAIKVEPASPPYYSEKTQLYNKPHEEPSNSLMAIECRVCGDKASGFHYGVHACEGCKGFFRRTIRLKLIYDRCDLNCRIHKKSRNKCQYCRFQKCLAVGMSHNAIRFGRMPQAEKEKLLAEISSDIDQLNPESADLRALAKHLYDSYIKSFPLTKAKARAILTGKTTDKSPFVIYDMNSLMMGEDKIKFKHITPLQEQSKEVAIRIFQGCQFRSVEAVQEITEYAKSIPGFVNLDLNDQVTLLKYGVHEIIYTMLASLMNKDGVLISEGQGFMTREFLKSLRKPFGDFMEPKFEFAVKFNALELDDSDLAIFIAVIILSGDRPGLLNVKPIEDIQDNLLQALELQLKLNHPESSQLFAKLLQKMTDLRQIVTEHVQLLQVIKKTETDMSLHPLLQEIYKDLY
Description: Agonist activity at GAL4-tagged human PPARgamma transfected in African green monkey COS7 cells assessed as transcriptional activation by measuring effective concentration incubated for 24 hrs by luciferase assay.

Experiment [3] concerns the target T3, Peroxisome proliferator-activated receptor delta (Homo sapiens, UniProt Q03181).
T3 sequence (Q03181 whole entry): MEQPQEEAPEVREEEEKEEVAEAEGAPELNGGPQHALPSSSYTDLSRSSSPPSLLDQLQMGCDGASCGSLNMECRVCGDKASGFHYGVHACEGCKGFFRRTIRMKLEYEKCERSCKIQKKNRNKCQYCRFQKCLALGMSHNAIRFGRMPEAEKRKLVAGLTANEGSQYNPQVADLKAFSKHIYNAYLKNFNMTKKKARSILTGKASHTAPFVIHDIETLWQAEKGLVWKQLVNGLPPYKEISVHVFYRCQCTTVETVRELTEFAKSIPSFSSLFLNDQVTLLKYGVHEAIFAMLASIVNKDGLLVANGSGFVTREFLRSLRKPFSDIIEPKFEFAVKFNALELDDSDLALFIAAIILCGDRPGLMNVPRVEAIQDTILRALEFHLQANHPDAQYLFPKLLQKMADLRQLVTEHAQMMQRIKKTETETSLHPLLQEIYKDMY
Description: Agonist activity at GAL4-tagged human PPARbeta/delta transfected in African green monkey COS7 cells assessed as transcriptional activation by measuring effective concentration incubated for 24 hrs by luciferase assay.

For `CCOC(=O)/C(=C/CCC1(C)CCc2cc(OCc3ccccc3)ccc2O1)OCC(F)(F)F` (centres undefined), the EC50 result in experiment [1] (cos7) and in experiment [2] (cos7) was “Not Active” throughout.
For the molecule `CCOC(=O)CC/C(C)=C/CCC1(C)CCc2cc(OCc3ccccc3)ccc2O1` (centres undefined), the EC50 stood at 2950 nM in experiment [1] (read-out: EC50) and 1590 nM in experiment [2] (read-out: EC50).
For the molecule `CCOC(=O)CC/C(C)=C/CCc1ccc2cc(OCc3ccccc3)ccc2n1`, the EC50 stood at 3200 nM in experiment [1] (read-out: EC50) and 1510 nM in experiment [3].
Consider `Cc1cc(SCc2sc(-c3ccc(C(F)(F)F)cc3)nc2C)ccc1OCC(=O)O` [GW501516], for which the EC50 result in experiment [1] (cos7) is listed as “Not Active”.
`Cc1cccc(Nc2cc(Cl)nc(SCC(=O)O)n2)c1C` [PIRINIXIC ACID]: in experiment [2] (cos7), the EC50 entry is reported as “Not Active”.
As for `CN(CCOc1ccc(CC2SC(=O)NC2=O)cc1)c1ccccn1` (centres undefined) [ROSIGLITAZONE], in experiment [1] (cos7), the EC50 result was “Not Active”.
